Where “and” joins values, the source holds several entries; their conditions need not be identical. Equal entries are not always repeated.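 Each compound was tested at five concentrations against cells in 96-well plates for 48 hours. Here, GI50 denotes the concentration required for 50% inhibition of growth. TGI: total growth inhibition.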
Legend:
Test in all cases: NCI tumour cell line growth inhibition, 48 h
CCRF-CEM leukemia = system: CCRF-CEM leukemia
EKVX NSCLC = system: EKVX NSCLC
HL-60(TB) leukemia = system: HL-60(TB) leukemia
SF-539 CNS = system: SF-539 CNS
SK-MEL-2 melanoma = system: SK-MEL-2 melanoma
TK-10 renal = system: TK-10 renal
BT-549 breast = system: BT-549 breast
MDA-MB-231 breast = system: MDA-MB-231 breast
MDA-MB-435 = system: MDA-MB-435
NCI/ADR-RES ovarian = system: NCI/ADR-RES ovarian

CCC[CH2][Sn]1([CH2]CCC)[O]CC(CN2CCOCC2)[O]1 (stereo not drawn)
GI50 (CCRF-CEM leukemia): 0.995 µM
TGI (CCRF-CEM leukemia): 4.84 µM
GI50 (EKVX NSCLC): 2.18 µM
TGI (EKVX NSCLC): 11.9 µM
GI50 (HL-60(TB) leukemia): 1.17 µM
TGI (HL-60(TB) leukemia): 3.62 µM
GI50 (SF-539 CNS): 2.96 µM
TGI (SF-539 CNS): 8.59 µM
GI50 (SK-MEL-2 melanoma): 1.53 µM
TGI (SK-MEL-2 melanoma): 3.66 µM
GI50 (TK-10 renal): 4.02 µM
TGI (TK-10 renal): 12.1 µM

COc1ccc(C(=O)CC(=O)C(=O)Nc2ccc(C)c(C)c2)cc1
TGI (CCRF-CEM leukemia): > 74.5 µM
TGI (EKVX NSCLC): > 100 µM
TGI (HL-60(TB) leukemia): > 64.3 µM
TGI (SF-539 CNS): > 100 µM
TGI (SK-MEL-2 melanoma): > 100 µM
TGI (TK-10 renal): > 100 µM

CCCC(=O)Nc1ccc2c(c1)CN1C(=O)c3ccccc3C1=N2
TGI (BT-549 breast): > 100 µM
TGI (HL-60(TB) leukemia): > 100 µM
TGI (MDA-MB-231 breast): > 100 µM
TGI (MDA-MB-435): > 100 µM
TGI (NCI/ADR-RES ovarian): > 100 µM
TGI (SF-539 CNS): > 100 µM
TGI (SK-MEL-2 melanoma): > 100 µM
TGI (TK-10 renal): > 100 µM

COc1ccc(NC(=O)CC(=O)N2N=C(N(CCC#N)c3cccc(C)c3)CC2c2ccccc2)cc1 (stereo not drawn)
TGI (CCRF-CEM leukemia): > 100 µM
TGI (EKVX NSCLC): > 100 µM
TGI (HL-60(TB) leukemia): > 100 µM
TGI (SF-539 CNS): > 100 µM
TGI (SK-MEL-2 melanoma): > 100 µM

O=C1OC(c2ccccc2)=N/C1=C\c1cc(Cl)ccc1Cl
TGI (CCRF-CEM leukemia): 66.8 µM
TGI (EKVX NSCLC): > 100 µM
TGI (HL-60(TB) leukemia): 35.3 µM
TGI (SF-539 CNS): > 100 µM
TGI (SK-MEL-2 melanoma): > 100 µM

Oc1ccc(-c2cn3cc(Cl)sc3n2)cc1
GI50 (BT-549 breast): 32.1 µM
TGI (BT-549 breast): > 100 µM
GI50 (CCRF-CEM leukemia): 12.1 µM
TGI (CCRF-CEM leukemia): 39.8 µM
GI50 (EKVX NSCLC): 47.6 µM
TGI (EKVX NSCLC): > 100 µM
GI50 (MDA-MB-231 breast): > 100 µM
TGI (MDA-MB-231 breast): > 100 µM
GI50 (MDA-MB-435): 32.3 µM
TGI (MDA-MB-435): > 100 µM
GI50 (SF-539 CNS): > 100 µM
TGI (SF-539 CNS): > 100 µM
GI50 (SK-MEL-2 melanoma): > 100 µM
TGI (SK-MEL-2 melanoma): > 100 µM
GI50 (TK-10 renal): 40.4 µM
TGI (TK-10 renal): 84.9 µM

N#C/C(=C1C=C/C(=N\O)C(Cl)=C\1)c1ccccc1
GI50 (BT-549 breast): 4.36 µM
TGI (BT-549 breast): 16.2 µM
GI50 (CCRF-CEM leukemia): 0.37 µM
TGI (CCRF-CEM leukemia): 2.37 µM
GI50 (HL-60(TB) leukemia): 2.19 µM
TGI (HL-60(TB) leukemia): 5.67 µM
GI50 (MDA-MB-231 breast): 2.26 µM
TGI (MDA-MB-231 breast): 6.7 µM
GI50 (MDA-MB-435): 0.542 µM
TGI (MDA-MB-435): 2.66 µM
GI50 (NCI/ADR-RES ovarian): 1.66 µM
TGI (NCI/ADR-RES ovarian): 5.17 µM
GI50 (SF-539 CNS): 1.34 µM
TGI (SF-539 CNS): 5 µM
GI50 (TK-10 renal): 5.12 µM
TGI (TK-10 renal): 16.4 µM

COC(=O)C(Cc1ccccc1)NC(=O)Cn1ccnc1[N+](=O)[O-] (stereo not drawn)
TGI (CCRF-CEM leukemia): > 100 µM
TGI (EKVX NSCLC): > 100 µM
TGI (HL-60(TB) leukemia): > 100 µM
TGI (SF-539 CNS): > 100 µM
TGI (SK-MEL-2 melanoma): > 100 µM
TGI (TK-10 renal): > 100 µM

O=C1CC[C@H](c2ccc(O)c3c2C(=O)[C@@H]2O[C@@H]2C3=O)c2cccc(O)c21
GI50 (BT-549 breast): 2.38 µM
TGI (BT-549 breast): 6.42 µM
GI50 (CCRF-CEM leukemia): 1.05 µM
TGI (CCRF-CEM leukemia): 5.76 µM
GI50 (EKVX NSCLC): 13.1 µM
TGI (EKVX NSCLC): 28.2 µM
GI50 (HL-60(TB) leukemia): 1.93 µM
TGI (HL-60(TB) leukemia): 5.87 µM
GI50 (MDA-MB-435): 1.92 µM
TGI (MDA-MB-435): 4.2 µM
GI50 (NCI/ADR-RES ovarian): 3.01 µM
TGI (NCI/ADR-RES ovarian): 15.1 µM
GI50 (SF-539 CNS): 2.42 µM
TGI (SF-539 CNS): 5.46 µM
GI50 (SK-MEL-2 melanoma): 13 µM
TGI (SK-MEL-2 melanoma): 26.9 µM
GI50 (TK-10 renal): 1.49 µM
TGI (TK-10 renal): 2.93 µM

O=C(c1nc2ccc(Cl)cc2[nH]c1=O)C(O)c1ccc2c(c1)OCO2 (stereo not drawn)
TGI (CCRF-CEM leukemia): > 100 µM
TGI (EKVX NSCLC): > 100 µM
TGI (HL-60(TB) leukemia): > 100 µM
TGI (SK-MEL-2 melanoma): > 100 µM
TGI (TK-10 renal): > 100 µM

Cc1ccc(C(=O)C#Cc2c[nH]c(=O)[nH]c2=O)cc1
TGI (CCRF-CEM leukemia): 18.8 µM
TGI (EKVX NSCLC): 31.4 µM
TGI (HL-60(TB) leukemia): 35.1 µM
TGI (SF-539 CNS): 15.5 µM
TGI (SK-MEL-2 melanoma): 27.6 µM
TGI (TK-10 renal): 31.9 µM

CCCCCCCCCCCCCCCCCC(=O)OCC(COC1OC(CS(=O)(=O)O)C(O)C(O)C1O)OC(=O)CCCCCCCCCCCCCCCCC (stereo not drawn)
TGI (CCRF-CEM leukemia): > 100 µM
TGI (EKVX NSCLC): > 100 µM
TGI (HL-60(TB) leukemia): > 100 µM
TGI (MDA-MB-231 breast): > 100 µM
TGI (MDA-MB-435): > 100 µM
TGI (NCI/ADR-RES ovarian): > 100 µM
TGI (SF-539 CNS): > 100 µM
TGI (TK-10 renal): > 100 µM

COC1=C2C[C@@H](C)C[C@@H](OC)[C@@H](O)[C@H](C)/C=C(\C)[C@@H](OC(N)=O)[C@H](OC)/C=C\C=C(/C)C(=O)NC(=CC1=O)C2=O
TGI (CCRF-CEM leukemia): 1.07 µM and 7.4 µM and 4.95 µM
TGI (MDA-MB-435): 5.5 µM and 8.63 µM and 5.65 µM
TGI (NCI/ADR-RES ovarian): 10.7 µM and 32.8 µM and 10.6 µM
TGI (SF-539 CNS): 9.47 µM and 12.2 µM and 2.68 µM

CCOC(=O)c1c(Cl)c2c(n1Cc1cccc(OC)c1)-c1oncc1CC2
GI50 (CCRF-CEM leukemia): 2.07 µM
TGI (CCRF-CEM leukemia): 84 µM
GI50 (EKVX NSCLC): 3.05 µM
TGI (EKVX NSCLC): > 100 µM
GI50 (HL-60(TB) leukemia): 0.557 µM
TGI (HL-60(TB) leukemia): 5.81 µM
GI50 (MDA-MB-231 breast): 4.61 µM
TGI (MDA-MB-231 breast): > 100 µM
GI50 (MDA-MB-435): 0.298 µM
TGI (MDA-MB-435): 15.6 µM
GI50 (NCI/ADR-RES ovarian): 0.497 µM
TGI (NCI/ADR-RES ovarian): 6.91 µM
GI50 (SF-539 CNS): 2.12 µM
TGI (SF-539 CNS): 10.6 µM
GI50 (SK-MEL-2 melanoma): 5.61 µM
TGI (SK-MEL-2 melanoma): 67.3 µM
GI50 (TK-10 renal): 6.59 µM
TGI (TK-10 renal): > 100 µM

COc1ccc(C(=O)C(C(=O)C(=O)NC2C3CC4CC(C3)CC2C4)c2ccc(OC)cc2)cc1 (stereo not drawn)
TGI (CCRF-CEM leukemia): > 100 µM
TGI (EKVX NSCLC): > 100 µM
TGI (HL-60(TB) leukemia): > 100 µM
TGI (SF-539 CNS): > 100 µM
TGI (SK-MEL-2 melanoma): > 100 µM
TGI (TK-10 renal): > 100 µM

COC(=O)CS(=O)c1ccccc1 (stereo not drawn)
TGI (CCRF-CEM leukemia): 63.2 µM
TGI (EKVX NSCLC): > 100 µM
TGI (HL-60(TB) leukemia): 37 µM
TGI (SF-539 CNS): 44.1 µM
TGI (SK-MEL-2 melanoma): > 100 µM
TGI (TK-10 renal): > 100 µM

O=NN/C(=C1\Nc2ccc([N+](=O)[O-])cc2NC1=O)C(O)c1ccc([N+](=O)[O-])cc1 (stereo not drawn)
TGI (CCRF-CEM leukemia): > 100 µM
TGI (HL-60(TB) leukemia): > 100 µM
TGI (SF-539 CNS): > 100 µM

Cc1ccc(NC2=C(Cl)C(=O)N(Cc3ccccc3)C2=O)cc1Cl
GI50 (BT-549 breast): 1.68 µM
TGI (BT-549 breast): 14.9 µM
GI50 (CCRF-CEM leukemia): 4.23 µM
TGI (CCRF-CEM leukemia): 19.4 µM
GI50 (EKVX NSCLC): 14.1 µM
TGI (EKVX NSCLC): 28.9 µM
GI50 (MDA-MB-435): 5.29 µM
TGI (MDA-MB-435): 25.7 µM
GI50 (NCI/ADR-RES ovarian): 6.11 µM
TGI (NCI/ADR-RES ovarian): 20.6 µM
GI50 (TK-10 renal): 9.13 µM
TGI (TK-10 renal): 24.3 µM

COc1ccc(-c2nc(N3CCOCC3)c3sc(CN(C)c4ncc(C(=O)NO)cn4)cc3n2)cn1
GI50 (BT-549 breast): 0.014 µM
TGI (BT-549 breast): 0.15 µM
GI50 (CCRF-CEM leukemia): < 0.01 µM
TGI (CCRF-CEM leukemia): 1.53 µM
GI50 (HL-60(TB) leukemia): < 0.01 µM
TGI (HL-60(TB) leukemia): 1.06 µM
GI50 (MDA-MB-231 breast): 0.0282 µM
TGI (MDA-MB-231 breast): 0.331 µM
GI50 (MDA-MB-435): < 0.01 µM
TGI (MDA-MB-435): 0.0284 µM
GI50 (SF-539 CNS): 0.0101 µM
TGI (SF-539 CNS): 0.161 µM
GI50 (SK-MEL-2 melanoma): 0.02 µM
TGI (SK-MEL-2 melanoma): 0.0799 µM

CN(C)C1=NC2=S(SC(Nc3ccccc3)=N2)S1 (stereo not drawn)
TGI (CCRF-CEM leukemia): > 100 µM
TGI (EKVX NSCLC): 38.5 µM
TGI (HL-60(TB) leukemia): > 100 µM
TGI (SF-539 CNS): 60.6 µM
TGI (SK-MEL-2 melanoma): > 100 µM
TGI (TK-10 renal): 85.5 µM

CCCc1nc(NC#N)nc(C(=O)NC23CC4CC(CC(C4)C2)C3)c1C
TGI (CCRF-CEM leukemia): > 100 µM
TGI (EKVX NSCLC): > 100 µM
TGI (HL-60(TB) leukemia): > 100 µM
TGI (SF-539 CNS): > 100 µM
TGI (SK-MEL-2 melanoma): > 100 µM
TGI (TK-10 renal): > 100 µM

CSc1nc(C)c(Br)c(=O)n1C1OC(COC(C)=O)C(OC(C)=O)C(OC(C)=O)C1OC(C)=O (stereo not drawn)
TGI (CCRF-CEM leukemia): > 100 µM
GI50 (EKVX NSCLC): > 100 µM and 42.9 µM
TGI (EKVX NSCLC): > 100 µM
TGI (HL-60(TB) leukemia): > 100 µM
TGI (MDA-MB-231 breast): > 100 µM
TGI (MDA-MB-435): > 100 µM
TGI (NCI/ADR-RES ovarian): > 100 µM
GI50 (SF-539 CNS): > 52.8 µM and 18.6 µM
TGI (SF-539 CNS): > 80.2 µM and 34.4 µM
TGI (SK-MEL-2 melanoma): > 100 µM
GI50 (TK-10 renal): 43.1 µM and 20.6 µM
TGI (TK-10 renal): > 100 µM and 55.9 µM

Source: PubChem BioAssay (NCI)
